Measurements: patent US20210290648A1, “Potentiation of B-Lactam Antibiotics and B-Lactam/B-Lactamase Inhibitor Combinations Against Multidrug and Extensively Drug-Resistant Pseudomonas Aeruginosa Using Non-Ribosomal Tobramycin-Cyclam Conjugates” (University of Manitoba, priority 2018, published 2021)
Where two headings read alike, the source gives them in different places.

Test system: WT P. aeruginosa PAO1
Assay: Checkerboard combination study / MIC
Type: cell-based, Pseudomonas aeruginosa
Details: for MIC: Pseudomonas aeruginosa; for FICI in the presence of ≤10 μM of 1: antibiotic + compound 1; for FICI in the presence of ≤10 μM of 1 / MIC of Antibiotics in the presence of ≤10 μM of 1 / FICI in the presence of ≤10 μM of 2 / MIC of Antibiotics in the presence of ≤10 μM of 2 / FICI in the presence of ≤10 μM of 3 / MIC of Antibiotics in the presence of ≤10 μM of 3 / FICI with compounds 1-3: WT PAO1; for MIC of Antibiotics in the presence of ≤10 μM of 1: antibiotic + compound 1 ≤10 μM; for FICI in the presence of ≤10 μM of 2: antibiotic + compound 2; for MIC of Antibiotics in the presence of ≤10 μM of 2: antibiotic + compound 2 ≤10 μM; for FICI in the presence of ≤10 μM of 3: antibiotic + compound 3; for MIC of Antibiotics in the presence of ≤10 μM of 3: antibiotic + compound 3 ≤10 μM; for FICI with compounds 1-3: antibiotic + compounds 1-3 at ≤10 μM (≤16 μg/mL)
[1] = PAO1, 18 h, antibiotic alone, WT PAO1 (Table 2), read-out: MIC alone

SMILES | MIC [1] | FICI in the presence of ≤10 μM of 1 | MIC of Antibiotics in the presence of ≤10 μM of 1 | FICI in the presence of ≤10 μM of 2 | MIC of Antibiotics in the presence of ≤10 μM of 2 | FICI in the presence of ≤10 μM of 3 | MIC of Antibiotics in the presence of ≤10 μM of 3 | FICI with compounds 1-3 | MIC (PAO1, read-out: MIC alone) | MIC (PAO1, 18 h, read-out: MIC alone)
O=C(N[C@H](CO)[C@H](O)c1ccc([N+](=O)[O-])cc1)C(Cl)Cl [Chloramphenicol] | 32 µg/mL | 0.25 | 8 µg/mL | 0.13 | 4 µg/mL | 0.25 | 8 µg/mL |  |  | 
CCC[C@@H]1C[C@@H](C(=O)N[C@@H]([C@H]2O[C@H](SC)[C@H](O)[C@@H](O)[C@H]2O)[C@H](C)Cl)N(C)C1 [Clindamycin] | 1020 µg/mL | 0.50 | 512 µg/mL | 0.51 | 512 µg/mL | 0.07 | 64 µg/mL |  |  | 
C[C@H]1c2cccc(O)c2C(=O)C2=C(O)[C@]3(O)C(=O)C(C(N)=O)=C(O)[C@@H](N(C)C)[C@@H]3[C@@H](O)[C@@H]21 [Doxycycline] | 8 µg/mL | 0.50 | 4 µg/mL | 0.13 | 1 µg/mL | 0.08 | 0.5 µg/mL |  |  | 
CC[C@H]1OC(=O)[C@H](C)[C@@H](O[C@H]2C[C@@](C)(OC)[C@@H](O)[C@H](C)O2)[C@H](C)[C@@H](O[C@@H]2O[C@H](C)C[C@H](N(C)C)[C@H]2O)[C@](C)(O)C[C@@H](C)C(=O)[C@H](C)[C@@H](O)[C@]1(C)O [Erythromycin] | 512 µg/mL | 0.50 |  | 0.50 |  | 0.25 |  |  |  | 
C[C@@H]1O[C@@H]1P(=O)(O)O [Fosfomycin] | 16 µg/mL | 0.51 | 8 µg/mL | 0.50 | 8 µg/mL | 1.02 | 16 µg/mL |  |  | 
CC(=O)NC[C@H]1CN(c2ccc(N3CCOCC3)c(F)c2)C(=O)O1 [Linezolid] | 1020 µg/mL | 1.00 | 1024 µg/mL | 0.26 | 256 µg/mL | 0.25 | 256 µg/mL |  |  | 
CN(C)c1ccc(O)c2c1C[C@H]1C[C@H]3[C@H](N(C)C)C(O)=C(C(N)=O)C(=O)[C@@]3(O)C(O)=C1C2=O [Minocycline] | 8 µg/mL | 0.25 | 2 µg/mL | 0.25 | 2 µg/mL | 0.17 | 1 µg/mL |  |  | 
COc1c(N2C[C@@H]3CCCN[C@@H]3C2)c(F)cc2c(=O)c(C(=O)O)cn(C3CC3)c12 [Moxifloxacin] | 1 µg/mL | 1.00 | 1 µg/mL | 0.51 | 0.5 µg/mL | 1.01 | 1 µg/mL |  |  | 
O=C1CN(/N=C/c2ccc([N+](=O)[O-])o2)C(=O)N1 [Nitrofurantoin] | 1020 µg/mL | 1.00 | 1024 µg/mL | 1.00 | 1024 µg/mL | 1.02 | 1024 µg/mL | 1 |  | 
CO[C@@H]1[C@@H](OC(N)=O)[C@@H](O)[C@H](Oc2ccc3c(O)c(NC(=O)c4ccc(O)c(CC=C(C)C)c4)c(=O)oc3c2C)OC1(C)C [Novobiocin] | 512 µg/mL | 0.13 | 64 µg/mL | 0.13 | 64 µg/mL | 0.08 | 32 µg/mL | 0.08-0.13 |  | 
C=C[C@]1(C)C[C@@H](OC(=O)CO)[C@]2(C)[C@H](C)CC[C@]3(CCC(=O)[C@H]32)[C@@H](C)[C@@H]1O [Pleuromutilin] | 512 µg/mL | 1.00 | 512 µg/mL | 1.00 | 512 µg/mL | 0.25 | 128 µg/mL |  |  | 
CO[C@H]1/C=C/O[C@@]2(C)Oc3c(C)c(O)c4c(O)c(c(/C=N/N5CCN(C)CC5)c(O)c4c3C2=O)NC(=O)/C(C)=C\C=C\[C@H](C)[C@H](O)[C@@H](C)[C@@H](O)[C@@H](C)[C@H](OC(C)=O)[C@@H]1C [Rifampicin] | 16 µg/mL | 0.13 | 2 µg/mL | 0.13 | 2 µg/mL | 0.25 | 4 µg/mL | 0.13-0.25 |  | 
CN(C)c1cc(NC(=O)CNC(C)(C)C)c(O)c2c1C[C@H]1C[C@H]3[C@H](N(C)C)C(O)=C(C(N)=O)C(=O)[C@@]3(O)C(O)=C1C2=O [Tigecycline] |  | 0.25 | 2 µg/mL | 0.50 | 2 µg/mL | 0.52 | 2 µg/mL |  | 4 µg/mL | 
COc1cc(Cc2cnc(N)nc2N)cc(OC)c1OC [Trimethoprim] | 64 µg/mL | 0.50 | 32 µg/mL | 0.50 | 32 µg/mL | 0.50 | 32 µg/mL |  |  | 
CN[C@H](CC(C)C)C(=O)N[C@H]1C(=O)N[C@@H](CC(N)=O)C(=O)N[C@H]2C(=O)N[C@H]3C(=O)N[C@H](C(=O)N[C@H](C(=O)O)c4cc(O)cc(O)c4-c4cc3ccc4O)[C@H](O)c3ccc(c(Cl)c3)Oc3cc2cc(c3O[C@@H]2O[C@H](CO)[C@@H](O)[C@H](O)[C@H]2O[C@H]2C[C@](C)(N)[C@H](O)[C@H](C)O2)Oc2ccc(cc2Cl)[C@H]1O [Vancomycin] |  | 0.50 | 128 µg/mL | 0.26 | 64 µg/mL | 0.50 | 128 µg/mL |  |  | 256 µg/mL
